Ends that are not written are not given here.

The conditions of data set [1]: 20 mM hydrogel in Milli-Q water, room temperature, 10 months.
Description: To prepare the hydrogels at different concentration, the lyophilized PMP-2 was dissolved in the suitable amount of Milli-Q water (final concentration of the prepared solutions: 0.1, 1, 2, 5, 10, and 20 mM) heating at 60°C for 3 min and sonicating for 1 min. The clear solutions were left cooling at rt.
5 Preparation of the PMP-2-based hydrogels
PMP-2 was dissolved in the suitable amount of milliQ water (final concentration of the prepared
solutions: 0.1 mM, 1 mM, 2 mM, 5 mM, 10 mM and 20 mM) heating at 60 °C for 3 minutes and
sonicating for 1 min. The clear solutions were left cooling at rt.
The 20 mM hydrogel was kept at room
A short description of data set [2]: Solubility observations in solvents. Format: physicochemical.
Data set [3] in a line: Dynamic Light Scattering of aggregates. Format: physicochemical. Conditions: 25°C, aged 24 h. As for the experimental part:
Malvern Zetasizer Nano instrument (Malvern Panalytical, Ltd.) was employed for Dynamic Light Scattering (DLS) analysis, performed at 25°C. The instrument is equipped with a 633 nm […] He–Ne laser at a scattering angle of 173°. All the samples used to analyze the stability of the PMP-2 aggregates as a function of different DMSO/water ratio were prepared by solvent displacement technique starting from concentrated solutions in 100% DMSO (0.125, 0.2, 0.5, 2, 4, and 10 mM) to obtain 0.1 mM final concentrations in Milli-Q water, with 80%, 50%, 20%, 10%, 5%, 2.5% and 1% v/v of DMSO, respectively. All the samples used to analyze the stability of the PMP-2 aggregates as a function of concentration were prepared starting from 0.1 mM in Milli-Q water with 5% v/v of DMSO and diluting with Milli-Q water to obtain the final concentration of 0.05, 0.01, 0.005, and 0.001 mM. The corresponding refractive index and viscosity data of DMSO/water mixtures are reported in the literature ([LeBel and Goring, 1962]) and the samples were aged 24 h at room temperature before the measurements.

Turning to AIAIGVVQGLAFALGGKKKG [PMP-2], the “stability of hydrogel on storage” value in data set [1] is “complete stability”. The “highest reachable concentration in DMSO” value in data set [2] (DMSO) came to 20 mM. Further, the solubility in water entry in data set [2] (water, room temperature) is “low solubility at room temperature”. The DLS aggregate stability result was “presence of stable aggregates” in data set [3] (0.1 mM, 5, 2.5 and 1% v/v DMSO/water); “formation of some stable aggregates” in data set [3] (0.1 mM, 20% and 10% DMSO in water); “very poor scattering power” in data set [3] (0.1 mM, 100, 80 and 50% v/v DMSO/water).

For the origin of these results see PMC9792601, “Conformational switch and multiple supramolecular structures of a newly identified self-assembling protein-mimetic peptide from Pseudomonas aeruginosa YeaZ protein” (Frontiers in Chemistry, 2022).
